Results on seven compounds are retold here after article PMC4830873 (Analytical and Bioanalytical Chemistry, 2016).

Entries after “also recorded” stand apart in the source; their conditions may differ. Where a SMILES comes first, the peptide text is derived from it. [ ]: non-standard residue; d: D form. Some results are limits rather than exact numbers.

Series [1] in a line: Human administration study, detection in EDTA plasma after subcutaneous Geref (Sermorelin). It counts as in vivo. Particulars: healthy volunteer, 500 μg Geref (Sermorelin) subcutaneous, n = 1. The protocol:
(§1) Sample aliquots of 100 μL of plasma were spiked with 1 μL of ISTD [200 ng/mL] and diluted with 100 μL of PBS before extraction. The multichannel pipette was equipped with up to 12 protein A/G MSIA™-Tips and up to 2000 cycles (one cycle corresponding to one round of liquid aspiration and ejection) were used for distinct sample preparation steps as outlined in Table 2. First, tips were conditioned with PBS before binding 10 μg of the polyclonal GHRH primary antibody (5 μL [2 mg/mL] in 95 μL PBS) to the proteins A/G immobilized on the monolithic adsorbent surface. After washing with PBS to remove unbound antibody residues the target analytes were extracted from plasma by antibody-antigen complex formation prior to three consecutive washing steps with PBS and water (Table 2). The peptides of interest were eluted into LoBind tubes using 3 % of aqueous acetic acid and the eluate was immediately used for injection into the UHPLC-MS(/MS) system. In Fig. 1, a schematic illustration of the relevant principle steps of the MSIA™ purification is presented.
Complementary to the aforementioned rat elimination study, a single dose of 500 μg of Geref (Sermorelin) (Hallandale Pharmacy, FL, USA) was self-administered subcutaneously by a healthy volunteer (78 kg) following the provision of written consent. EDTA plasma samples were collected 30, 90, and 270 min after dosing and the specimens were stored at −20 °C until analysis.
Compared to rat plasma samples collected after the intravenous application of Sermorelin, the human in vivo study (using subcutaneous drug application) indicates a different but also rapid metabolism of the peptide hormone. While the intact drug was not detected in any of the collected plasma samples, the in vitro-derived Sermorelin metabolite GRF3-29 was detected in plasma 30 min post injection (Fig. 4).

Series [2] in a line: Rat administration study, detection in plasma after intravenous administration. It counts as in vivo, Wistar. To be noted: for In vivo biotransformation in rats (in words) / Anticipated metabolic products (N- or C-terminally truncated analogues) in rat plasma / Detection of intact GHRH in rat plasma 4 h post-administration / Detection of intact GHRH in rat plasma 8 h post-administration: 0.1 mg intravenous; for In vivo biotransformation in rats (in words): compared to CJC-1295; for Anticipated metabolic products (N- or C-terminally truncated analogues) in rat plasma: plasma 2, 4 and 8 h; for Detection of intact GHRH in rat plasma 4 h post-administration: plasma 4 h post dosing; for Detection of intact GHRH in rat plasma 4 h post-administration / Detection of intact GHRH in rat plasma 8 h post-administration: immunoaffinity purification and LC-HRMS/MS; for Detection of intact GHRH in rat plasma 8 h post-administration: plasma 8 h post dosing (latest collection time point). The protocol:
as §1
To probe for the in vivo metabolism of Sermorelin, CJC-1293, CJC-1295, and Tesamorelin, 0.1 mg of each GHRH was administered intravenously to three rats (Rattus norvegicus, Wistar, 200–300 g bodyweight at dosing). Urine samples were collected in a metabolic cage prior to and 6, 12, 24, and 30 h after administration but not subjected to analysis in this study. Blood was sampled at 2, 4, and 8 h after injection and specimens were centrifuged at 13,000×g for 20 min to produce serum or EDTA plasma, which was stored at −20 °C until analysis. The animal studies were conducted with approval of the respective ethical committee and the laboratory followed the directive 2010/63/EU of the European parliament and the council of 22 September 2010 on the protection of animals used for scientific purposes.
All intact GHRHs administered intravenously to rats were detected in plasma samples collected 2 h post dosing. In addition, Tesamorelin, CJC-1295, and CJC-1293 were also identified in specimens sampled 4 and 8 h post-administrating (Fig. 3), with the 8-h sample representing the latest collection time point of the study. Here it appears noteworthy that only qualitative results were obtained and that no pharmacokinetic interpretation was conducted. While all analytes were unequivocally identified and differentiated by mass spectrometry, chromatographic separation was accomplished for all target peptides with the exemption of the closely related compounds Sermorelin and CJC-1293 under the chosen analytical conditions.

Series [3] is described as follows: In vitro incubation in fresh human plasma (metabolic fate / degradation). Particulars: fresh human plasma diluted 1:1 with PBS, qualitative; for Degradation products (metabolites) detected after incubation in human plasma: spiked to 10 μg/mL, 30, 60, 120 and 240 min at 37 °C, LC-HRMS full scan before vs after incubation. It counts as in vitro ADME. As for the experimental part:
For the investigation of the metabolic fate of GHRHs, in vitro experiments using fresh human plasma samples were conducted, allowing to test for potential degradation products of the studied substances. In accordance to earlier reported methods, aliquots of human plasma samples were diluted (1:1) with PBS [22] and spiked to 10 μg/mL with Sermorelin or Tesamorelin, respectively. After incubation for 30, 60, 120, and 240 min at 37 °C, samples were prepared and analyzed as described elsewhere. Simulating degradation processes of exopeptidases, potential metabolites were considered by eliminating up to three amino acids from both N- and C-terminus. All samples were probed for the anticipated metabolic products as well as for the corresponding intact drugs.
Identifying potential metabolites of Sermorelin and Tesamorelin was accomplished by subtracting and comparing mass spectrometric full scan data of samples prepared before and after incubation of the substrates in fresh human plasma.

Series [4] in a line: fresh human plasma samples diluted (1:1) with PBS. To be noted: 37 °C, up to 240 min.
Series [5] is described as follows: rat serum or EDTA plasma after intravenous administration. To be noted: rats (Rattus norvegicus, Wistar), up to 8 h.
Series [6] deals with dipeptidyl peptidase-IV (DPP-IV). The experiment in a line: in vitro. To be noted: cited from earlier work.
Series [7] in a line: EDTA plasma samples after subcutaneous self-administration of Geref (Sermorelin). Particulars: human, up to 270 min.

Turning to `CC[C@H](C)[C@H](NC(=O)[C@H](C)NC(=O)[C@H](CC(=O)O)NC(=O)[C@H](C)NC(=O)[C@@H](N)Cc1ccc(O)cc1)C(=O)N[C@@H](Cc1ccccc1)C(=O)N[C@H](C(=O)N[C@@H](CC(N)=O)C(=O)N[C@@H](CO)C(=O)N[C@@H](Cc1ccc(O)cc1)C(=O)N[C@@H](CCCNC(=N)N)C(=O)N[C@@H](CCCCN)C(=O)N[C@H](C(=O)N[C@@H](CC(C)C)C(=O)NCC(=O)N[C@@H](CCC(N)=O)C(=O)N[C@@H](CC(C)C)C(=O)N[C@@H](CO)C(=O)N[C@@H](C)C(=O)N[C@@H](CCCNC(=N)N)C(=O)N[C@@H](CCCCN)C(=O)N[C@@H](CC(C)C)C(=O)N[C@@H](CC(C)C)C(=O)N[C@@H](CCC(N)=O)C(=O)N[C@@H](CC(=O)O)C(=O)N[C@H](C(=O)N[C@@H](CCSC)C(=O)N[C@@H](CO)C(=O)N[C@@H](CCCNC(=N)N)C(N)=O)[C@@H](C)CC)C(C)C)[C@@H](C)O` [Sermorelin, GHRH1-29], in series [1] (EDTA plasma 30, 90 and 270 min after dosing), the “Detection of intact drug in human plasma after subcutaneous application” value is reported as “not detected”. The “Detection window of intact substance in plasma” value in series [2] (0.1 mg intravenous single dose, sampling at 2, 4 and 8 h, qualitative) is at most 2 h. In addition, the “In vivo biotransformation in rats (in words)” value in series [2] is “readily biotransformed”. Besides, the “Anticipated metabolic products (N- or C-terminally truncated analogues) in rat plasma” value in series [2] (qualitative) is listed as “none of the anticipated metabolic products”. Further, the “Degradation products (metabolites) detected after incubation in human plasma” value in series [3] is “the earlier reported metabolite (GRF3-29) [7] was observed”. In addition, in series [3] (spiked to 10 μg/mL, 37 °C, after a period of 4 h (240 min), LC-HRMS full scan), the “Intact drug remaining after incubation in human plasma” value is recorded as “entirely degraded”.

On to “DAIFTNSYRKVLGQLSARKLLQDIMSR-NH2 [Sermorelin metabolite, GRF3-29, metabolite of Sermorelin originating from the loss of the N-terminal Tyr-Ala-residue]”, for which the “Detection of metabolite in human plasma 30 min post injection” value in series [1] (EDTA plasma 30 min) is listed as “detected”. The “Detection of metabolite in human plasma 90 min post injection” value in series [1] (EDTA plasma 90 min) is given as “negative”.

Take `CC[C@H](C)[C@H](NC(=O)[C@H](C)NC(=O)[C@H](CC(=O)O)NC(=O)[C@@H](C)NC(=O)[C@@H](N)Cc1ccc(O)cc1)C(=O)N[C@@H](Cc1ccccc1)C(=O)N[C@H](C(=O)N[C@@H](CCC(N)=O)C(=O)N[C@@H](CO)C(=O)N[C@@H](Cc1ccc(O)cc1)C(=O)N[C@@H](CCCNC(=N)N)C(=O)N[C@@H](CCCCN)C(=O)N[C@H](C(=O)N[C@@H](CC(C)C)C(=O)N[C@@H](C)C(=O)N[C@@H](CCC(N)=O)C(=O)N[C@@H](CC(C)C)C(=O)N[C@@H](CO)C(=O)N[C@@H](C)C(=O)N[C@@H](CCCNC(=N)N)C(=O)N[C@@H](CCCCN)C(=O)N[C@@H](CC(C)C)C(=O)N[C@@H](CC(C)C)C(=O)N[C@@H](CCC(N)=O)C(=O)N[C@@H](CC(=O)O)C(=O)N[C@H](C(=O)N[C@@H](CC(C)C)C(=O)N[C@@H](CO)C(=O)N[C@@H](CCCNC(=N)N)C(N)=O)[C@@H](C)CC)C(C)C)[C@@H](C)O` [CJC-1295, (D-Ala^2, Gln^8, Ala^15, Leu^27)-GRF amide] (H-Y[dA]DAIFTQSYRKVLAQLSARKLLQDILSR-NH2): in series [2] (qualitative), the “Anticipated metabolic products (N- or C-terminally truncated analogues) in rat plasma” value is reported as “no analogous metabolites”, the “Detection of intact GHRH in rat plasma 4 h post-administration” value is “identified” and the “Detection of intact GHRH in rat plasma 8 h post-administration” value was “identified”.

Turning to `CC[C@H](C)[C@H](NC(=O)[C@H](C)NC(=O)[C@H](CC(=O)O)NC(=O)[C@@H](C)NC(=O)[C@@H](N)Cc1ccc(O)cc1)C(=O)N[C@@H](Cc1ccccc1)C(=O)N[C@H](C(=O)N[C@@H](CC(N)=O)C(=O)N[C@@H](CO)C(=O)N[C@@H](Cc1ccc(O)cc1)C(=O)N[C@@H](CCCNC(=N)N)C(=O)N[C@@H](CCCCN)C(=O)N[C@H](C(=O)N[C@@H](CC(C)C)C(=O)NCC(=O)N[C@@H](CCC(N)=O)C(=O)N[C@@H](CC(C)C)C(=O)N[C@@H](CO)C(=O)N[C@@H](C)C(=O)N[C@@H](CCCNC(=N)N)C(=O)N[C@@H](CCCCN)C(=O)N[C@@H](CC(C)C)C(=O)N[C@@H](CC(C)C)C(=O)N[C@@H](CCC(N)=O)C(=O)N[C@@H](CC(=O)O)C(=O)N[C@H](C(=O)N[C@@H](CCSC)C(=O)N[C@@H](CO)C(=O)N[C@@H](CCCNC(=N)N)C(N)=O)[C@@H](C)CC)C(C)C)[C@@H](C)O` [CJC-1293, (D-Ala^2)-GRF amide], the “In vivo biotransformation in rats (in words)” value in series [2] is reported as “readily biotransformed”. In series [2] (qualitative), the “Anticipated metabolic products (N- or C-terminally truncated analogues) in rat plasma” value is recorded as “none of the anticipated metabolic products; also recorded: no analogous metabolites”, the “Detection of intact GHRH in rat plasma 4 h post-administration” value is on record as “identified” and the “Detection of intact GHRH in rat plasma 8 h post-administration” value is reported as “identified”.

For the compound `CC/C=C/CC(=O)N[C@@H](Cc1ccc(O)cc1)C(=O)N[C@@H](C)C(=O)N[C@@H](CC(=O)O)C(=O)N[C@@H](C)C(=O)N[C@H](C(=O)N[C@@H](Cc1ccccc1)C(=O)N[C@H](C(=O)N[C@@H](CC(N)=O)C(=O)N[C@@H](CO)C(=O)N[C@@H](Cc1ccc(O)cc1)C(=O)N[C@@H](CCCNC(=N)N)C(=O)N[C@@H](CCCCN)C(=O)N[C@H](C(=O)N[C@@H](CC(C)C)C(=O)NCC(=O)N[C@@H](CCC(N)=O)C(=O)N[C@@H](CC(C)C)C(=O)N[C@@H](CO)C(=O)N[C@@H](C)C(=O)N[C@@H](CCCNC(=N)N)C(=O)N[C@@H](CCCCN)C(=O)N[C@@H](CC(C)C)C(=O)N[C@@H](CC(C)C)C(=O)N[C@@H](CCC(N)=O)C(=O)N[C@@H](CC(=O)O)C(=O)N[C@H](C(=O)N[C@@H](CCSC)C(=O)N[C@@H](CO)C(=O)N[C@@H](CCCNC(=N)N)C(=O)N[C@@H](CCC(N)=O)C(=O)N[C@@H](CCC(N)=O)C(=O)NCC(=O)N[C@@H](CCC(=O)O)C(=O)N[C@@H](CO)C(=O)N[C@@H](CC(N)=O)C(=O)N[C@@H](CCC(N)=O)C(=O)N[C@@H](CCC(=O)O)C(=O)N[C@@H](CCCNC(=N)N)C(=O)NCC(=O)N[C@@H](C)C(=O)N[C@@H](CCCNC(=N)N)C(=O)N[C@@H](C)C(=O)N[C@@H](CCCNC(=N)N)C(=O)N[C@@H](CC(C)C)C(N)=O)[C@@H](C)CC)C(C)C)[C@@H](C)O)[C@@H](C)CC` [Tesamorelin], in series [2] (qualitative), the “Detection of intact GHRH in rat plasma 4 h post-administration” value is “identified” and the “Detection of intact GHRH in rat plasma 8 h post-administration” value was “identified”. For the same compound, the “Degradation products (metabolites) detected after incubation in human plasma” value in series [3] is recorded as “no degradation products of considerable abundance were detected”.

Take “hexenoyl-YADAIFTNSYRKVLGQLSARKLLQDIMSRQQGESNQERGARARL-NH2”: the not cleaved entry was “no degradation products of considerable abundance were detected” in series [4] and “identified at all sampling points (i.e., up to 8 h post-administration)” in series [5].

With YADAIFTNSYRKVLGQLSARKLLQDIMSR-NH2, the cleaved bond result in series [6] is given as “Ala2-D3”; in series [4], “Ala2-D3”; in series [7], “Ala2-D3, 30 min”.
